Here are results for seven molecules from PMC12673918, “Design, Synthesis, and Selective Antiproliferative Activity of Indolizine Derivatives as Microtubule Destabilizers” (Archiv Der Pharmazie, 2025).

What is called IC50 is the concentration that inhibits the measured activity by half.

The test system of assay [1] is OHMF (non‐tumoral oral fibroblast). The assay is described as follows: Resazurin cell viability assay, OHMF fibroblasts. Type of assay: cell-based. Particulars: Homo sapiens, 72 h, n = 3. Here is the method: The tongue squamous cell carcinoma cell line CAL‐27 (ATCC CRL‐2095), breast carcinoma BT‐20 (ATCC HTB‐19), gastric carcinoma HGC‐27 (BCRJ Code 0310), and normal oral fibroblast OHMF (culture of fibroblasts derived from human oral healthy mucosa, approved by the Research Ethics Committee of the University of São Paulo, Campus of Ribeirão Preto, Brazil (with protocol number 049) were cultured in DMEM medium (DMEM, Sigma‐Aldrich, St. Louis, MO, USA) supplemented with 10% fetal bovine serum and a solution of penicillin (100 U/mL) and streptomycin (100 μg/mL). The cultures were maintained in a humidified incubator with 5% CO₂ at 37°C.
Cell viability was analyzed using the resazurin assay. For this, cells were seeded in 96‐well plates (1 × 10^3 cells per well) and incubated at 37°C with 5% CO₂ overnight for cell adhesion. Subsequently, the cells were treated with different compounds (0–50 µM) for 72 h. After treatment, the medium was replaced with phenol‐free DMEM medium (Sigma‐Aldrich) containing resazurin at a concentration of 44 µM (Sigma‐Aldrich). After incubation for 4 h at 37°C, fluorescence detection was performed (excitation 530/25 nm, emission 590/35 nm) using a microplate fluorimeter (Synergy 2, Biotek). Initial cell growth inhibition assays were performed in triplicate or quadruplicate, while IC50 determinations were conducted in triplicate. Data were plotted, and IC₅₀ values were determined by nonlinear regression using GraphPad Prism software 9.0.

Assay [2] has as its target T1, human P2X7 receptor (Homo sapiens, UniProt Q99572).
T1 construct: host or cells: HEK-293
T1 sequence (Q99572 1-595): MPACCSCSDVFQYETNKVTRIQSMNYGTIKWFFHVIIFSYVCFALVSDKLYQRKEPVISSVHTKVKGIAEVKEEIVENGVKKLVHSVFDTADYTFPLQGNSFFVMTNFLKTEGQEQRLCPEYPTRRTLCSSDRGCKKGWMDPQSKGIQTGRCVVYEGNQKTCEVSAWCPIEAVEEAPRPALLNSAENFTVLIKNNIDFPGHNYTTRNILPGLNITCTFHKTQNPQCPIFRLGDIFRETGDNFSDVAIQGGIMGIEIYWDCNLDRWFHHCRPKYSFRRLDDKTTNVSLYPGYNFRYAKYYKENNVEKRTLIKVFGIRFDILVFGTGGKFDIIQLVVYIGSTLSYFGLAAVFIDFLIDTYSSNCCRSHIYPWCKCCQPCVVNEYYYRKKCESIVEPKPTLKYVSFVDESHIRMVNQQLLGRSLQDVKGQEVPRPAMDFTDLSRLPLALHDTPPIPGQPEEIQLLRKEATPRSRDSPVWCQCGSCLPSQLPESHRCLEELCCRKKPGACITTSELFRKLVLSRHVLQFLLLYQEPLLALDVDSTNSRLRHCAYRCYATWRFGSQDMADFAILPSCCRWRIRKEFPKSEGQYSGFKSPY
The experiment in a line: YO‐PRO‐1 dye uptake assay for the P2X7 receptor. Type of assay: cell-based. To be noted: for inhibition at 10 µM: P2X7, read-out: % Inhibition of P2X7R at 10 µM compounds’ concentration; for off‐target activity against the P2X7 receptor: 10 μM. Here is the method:
HEK‐293 cell lines stably expressing human P2X7 receptor (hP2X7R‐HEK‐293, B'SYS GmbH, Witterswil, Switzerland) were maintained in a 50/50 mix of Dulbecco's Modified Eagle Medium and F12 medium (DMEM/F12) supplemented with 9% (v/v) FCS, 1% (v/v) Penicillin/Streptomycin (10000 I.U./mL, 10 mg/mL in 0.9% NaCl) and G418 (100 µg/mL) at 37°C and 5% CO2. Cells were subcultured in cell culture 75 cm^2 flasks and split every 2‐4 days (1:3; 1:6; 1:10) once confluent.
HEK‐293 cell lines stably expressing human P2X7 receptor were seeded into black‐walled Nunc 96‐well optical bottom plates (Thermo Fisher Scientific) at 2.0–4.0 × 10^4 cells/well and incubated at 37°C for 24–48 h. After removing the culture medium, cells were washed with 100 µL wash buffer (280 mM Sucrose; 5.6 mM KCl; 0.5 mM CaCl2; 10 mM D‐Glucose; 10 mM HEPES; 5 mM N‐Methyl‐D‐glucamine (pH 7.4)). Then, 50 µL assay buffer (280 mM Sucrose; 6.4 mM KCl, 10 mM D‐Glucose; 10 mM HEPES; 5.0 mM N‐Methyl‐D‐glucamine (pH 7.4)) and 50 µL of antagonist dilutions (10^–5–10^–9 M) in assay buffer were added, and the cells were incubated at 37°C for 30 min. […] Finally, the uptake of YO‐PRO‐1 dye was recorded in a 9‐point‐well scan by following the fluorescence change using a FlexStation 3 Multi‐Mode Microplate Reader (Molecular Devices, San Jose, CA, USA, Software SoftMax7 Pro, endpoint protocol, well scan with reading pattern “fill scan”, λ ex = 485 nm, λ em = 535 nm). To determine the concentration‐dependent uptake inhibition by antagonists, the YO‐PRO‐1 uptake, expressed as RFU, was plotted against the concentrations of the compounds.

For the molecule `COc1ccc2c(C(=O)c3ccc(Cl)c(Cl)c3)ccn2c1` [Compound 7e, (6‐methoxyindolizin‐1‐yl)(3,4‐dichlorophenyl)methanone], the IC50 in assay [1] was > 50000 nM. Besides, the inhibition at 10 µM in assay [2] worked out at 4%.
Turning to `COc1ccc2c(C(=O)c3cc(OC)c(OC)c(OC)c3)c(C)cn2c1` [Compound 8a, (6‐methoxy‐2‐methylindolizin‐1‐yl)(3,4,5‐trimethoxyphenyl)methanone], the IC50 in assay [1] is > 50000 nM. Also, in assay [2], the inhibition at 10 µM was found to be 9%.
Consider `COc1ccc2c(C(=O)c3cc(OC)c(OC)c(OC)c3)c(C(C)(C)C)cn2c1` [Compound 8b, [2‐(Tert‐Butyl)‐6‐Methoxyindolizin‐1‐yl](3,4,5‐Trimethoxyphenyl)Methanone], for which the inhibition at 10 µM in assay [2] was -7%.
Consider `COc1ccc2c(C(=O)c3cc(OC)c(OC)c(OC)c3)c(C(F)(F)F)cn2c1` [Compound 8e, [6‐methoxy‐2‐(trifluoromethyl)indolizin‐1‐yl](3,4,5‐trimethoxyphenyl)methanone], for which, in assay [1], the IC50 was > 50000 nM. Further, in assay [2], the “off‐target activity against the P2X7 receptor” value was “none of the synthesized compounds, including 8e and 8h, showed significant activity”; the inhibition at 10 µM is 8%.
Take `CCCc1cn2cc(OC)ccc2c1C(=O)c1cc(OC)c(OC)c(OC)c1` [Compound 8h, (6‐methoxy‐2‐propylindolizin‐1‐yl)(3,4,5‐trimethoxyphenyl)methanone]: the IC50 in assay [1] is > 50000 nM. In assay [2], the “off‐target activity against the P2X7 receptor” value was “none of the synthesized compounds, including 8e and 8h, showed significant activity”; the inhibition at 10 µM was -1%.
Regarding `COc1ccc2c(C(=O)c3cc(OC)c(OC)c(OC)c3)c(-c3ccc(C)cc3)cn2c1` [Compound 8j, [6‐methoxy‐2‐(p ‐tolyl)indolizin‐1‐yl](3,4,5‐trimethoxyphenyl)methanone], the IC50 in assay [1] was > 50000 nM. The inhibition at 10 µM in assay [2] was -2%.
As for `COc1ccc(-c2cn3cc(OC)ccc3c2C(=O)c2cc(OC)c(OC)c(OC)c2)cc1` [Compound 8k, [6‐methoxy‐2‐(4‐methoxyphenyl)indolizin‐1‐yl](3,4,5‐trimethoxyphenyl)methanone], the IC50 in assay [1] was > 50000 nM. In addition, in assay [2], the inhibition at 10 µM was determined as 10%.
